Measurements published in ChEMBL document CHEMBL2074418, “Limited oral bioavailability and active epithelial excretion of paclitaxel (Taxol) caused by P-glycoprotein in the intestine” (Proc Natl Acad Sci U S A, 1997).

Columns and labels:
[1] = target: T1, ATP-dependent translocase ABCB1 (Mus musculus, UniProt P21447); test: TP_TRANSPORTER: increase in plasma concentration in mdr1a(-/-) mouse; type: functional, organism-based; settings: in vivo
[2] = target: T1, ATP-dependent translocase ABCB1; test: TP_TRANSPORTER: increase in bioavailability in mdr1a(-/-) mouse; type: functional, organism-based; settings: in vivo

T1 sequence (P21447 whole entry): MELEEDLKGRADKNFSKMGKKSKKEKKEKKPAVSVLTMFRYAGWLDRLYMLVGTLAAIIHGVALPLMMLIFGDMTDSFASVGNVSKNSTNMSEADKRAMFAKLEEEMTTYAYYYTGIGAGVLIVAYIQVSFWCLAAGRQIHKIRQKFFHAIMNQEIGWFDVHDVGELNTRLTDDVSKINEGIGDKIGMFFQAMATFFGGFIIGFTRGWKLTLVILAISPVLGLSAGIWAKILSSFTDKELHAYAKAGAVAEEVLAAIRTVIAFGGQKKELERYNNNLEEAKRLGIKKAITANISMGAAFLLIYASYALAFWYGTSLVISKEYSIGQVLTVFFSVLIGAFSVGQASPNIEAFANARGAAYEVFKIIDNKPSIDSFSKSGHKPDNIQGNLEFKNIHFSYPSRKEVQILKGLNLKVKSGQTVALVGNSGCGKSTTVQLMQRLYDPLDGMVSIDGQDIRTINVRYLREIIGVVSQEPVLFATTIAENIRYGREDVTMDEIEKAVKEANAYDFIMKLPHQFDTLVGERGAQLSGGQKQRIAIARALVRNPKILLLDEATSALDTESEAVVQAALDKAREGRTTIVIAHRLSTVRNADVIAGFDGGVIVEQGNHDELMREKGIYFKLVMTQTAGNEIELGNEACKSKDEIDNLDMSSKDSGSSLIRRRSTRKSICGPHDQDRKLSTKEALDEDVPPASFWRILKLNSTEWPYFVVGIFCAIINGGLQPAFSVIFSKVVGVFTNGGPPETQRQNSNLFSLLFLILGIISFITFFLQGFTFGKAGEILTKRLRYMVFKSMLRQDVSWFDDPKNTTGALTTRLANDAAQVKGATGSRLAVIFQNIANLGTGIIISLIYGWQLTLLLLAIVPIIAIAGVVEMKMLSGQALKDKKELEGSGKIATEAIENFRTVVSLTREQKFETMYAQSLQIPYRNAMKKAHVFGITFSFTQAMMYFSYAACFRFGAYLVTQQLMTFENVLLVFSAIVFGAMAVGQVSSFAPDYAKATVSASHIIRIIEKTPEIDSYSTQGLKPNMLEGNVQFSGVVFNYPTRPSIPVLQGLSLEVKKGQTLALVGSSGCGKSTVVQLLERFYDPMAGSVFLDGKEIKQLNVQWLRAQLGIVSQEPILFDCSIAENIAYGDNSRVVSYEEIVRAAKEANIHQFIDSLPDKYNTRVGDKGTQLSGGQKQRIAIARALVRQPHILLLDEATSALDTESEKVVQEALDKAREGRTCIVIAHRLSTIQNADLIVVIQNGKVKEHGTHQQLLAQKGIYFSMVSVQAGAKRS

## CC(=O)O[C@H]1C(=O)[C@@]2(C)[C@H]([C@H](OC(=O)c3ccccc3)[C@]3(O)C[C@H](OC(=O)[C@H](O)[C@@H](NC(=O)c4ccccc4)c4ccccc4)C(C)=C1C3(C)C)[C@]1(OC(C)=O)CO[C@@H]1C[C@@H]2O [PACLITAXEL]
[1]
  Activity: substrate [+]
[2]
  Activity: substrate [+]
